Reference: patent publication US5534522A, “(R)-(Z)-1-azabicyclo [2.2.1] heptan-3-one,O-[3-(3-methoxyphenyl)-2-propynyl] oxime maleate as a pharmaceutical agent” (Warner-Lambert Company, priority 1995, dated 1996)
pIC50: −log10 of the molar value. Where a name gives a salt, the structure may show the parent alone. Read-outs that look alike come from different tables or passages of the source.

Key:
[1] = Evaluation of acid addition salts (ease of formation and crystallinity); assay type: physicochemical; conditions: for Overall Salt Rating: based on ease of formation and crystallinity, salt of 1a (free base treated with acid); for isomer formation on recrystallization (words): EtOAc in Table III
Method: Many counter-ions were evaluated for salt-forming properties. The data presented in Table III answer the following questions: (1) did a solid salt precipitate from ether when free base 1a was treated with each acid?; (2) following collection of the salt by either filtration or evaporation of the ether, what solvents were used to crystallize the salt, and was a crystalline salt obtained from each solvent?; (3) melting point information; and (4) overall rating of each salt, based on considerations of ease of formation and crystallinity.

[2] = Hygroscopicity of salts of Compound 1a; assay type: physicochemical; conditions: for Hygroscopicity (% wt increase): RT, 81% RH for 16 days, crimped DSC pans; for moisture uptake / hygroscopicity in words: salts of Table IV
[3] = Stability of crystalline salts of 1a under accelerated stability conditions; assay type: physicochemical
Text: Maleate and benzoate salts were recrystallized from ethyl acetate and t-butyl methyl ether, respectively. Xenon exposure with the Atlas SunChex set for 0.4±0.1 watts/m^2. Fluorescent exposure with 1000-±100-ft candles.

[4] = Aqueous solubility of crystalline salts of 1a; assay type: physicochemical; conditions: for solubility: water, room temp.
[5] = system: hippocampally deficient mice; assay type: in vivo, mouse
Text: This test measures the ability of a compound to decrease the amount of time needed by the mice to find a hidden platform in the water pool.
The graph represents two sets of experiments, each one with its own control group.

[6] = biological target: rat cerebral cortex muscarinic receptors; test: Muscarinic receptor binding, CMD (cis-methyldioxolane) agonist radioligand; conditions: for pIC50: Table I
[7] = biological target: rat cerebral cortex muscarinic receptors; conditions: Table I; read-out: QNB Binding IC50
[8] = system: m1-subtype muscarinic receptors; conditions: cited from earlier work
[9] = Refrigerated storage stability of free base; assay type: physicochemical; conditions: refrigerated at -4° C., up to several days
[10] = system: rat cerebral cortex muscarinic receptors; conditions: earlier publications, cited from earlier work
[11] = Xenon, 26 hours, 0.4±0.1 watts/m^2
[12] = 1a versus isomer 1b, Tables II and III of Jaen reference

COc1cccc(C#CCO/N=C2\CN3CC[C@@H]2C3)c1 [Succinate]
Overall Salt Rating [1]: Low

COc1cccc(C#CCO/N=C2\CN3CC[C@@H]2C3)c1 [Benzene Sulfonae Sulphonate]
Overall Salt Rating [1]: Low

COc1cccc(C#CCO/N=C2\CN3CC[C@@H]2C3)c1 [Maleate, (R)-(Z)-1-azabicyclo[2.2.1]heptan-3-one,O-[3-(3-methoxyphenyl)-2-propynyl]oxime, (Z)-butenedioic acid, [1:1 salt]]
Hygroscopicity (% wt increase) [2]: 0.32 ± 0.02 % wt | moisture uptake / hygroscopicity in words [2]: the least | Stability to light: presence of 1c ([3]; Fluorescence, 5.5 months, 1000-±100-ft candles): .largecircle. | Stability to light: presence of 1c [3, 11]: .largecircle. | solubility in water relative to 1a benzoate ([4]; 1a maleate versus 1a benzoate): about 15 times | solubility [4]: 89 mg/mL | latency improvement ([5]; 1 mg/kg, separate set of experiments (maleate)): about 20 seconds | biological activity compared to other salts ([5]; water maze): no loss of biological activity

COc1cccc(C#CCO/N=C2\CN3CC[C@@H]2C3)c1 [ethyl acetate recrystallized maleate salt]
stability compared with ether-precipitated product ([3]; ethyl acetate recrystallized versus ether-precipitated): more stable

COc1cccc(C#CCO/N=C2/CN3CCC2C3)c1 (centres unmarked) [(1c + 1d)]
pIC50 [6]: 6.82 | pIC50 [7]: 4.83

Nc1c2c(nc3ccccc13)CCCC2 [tacrine, reference compound]
latency improvement, tacrine control group ([5]; tacrine in the maleate set of experiments): 24 s | improvement of time to find the platform, positive control ([5]; tacrine in the oxalate set of experiments): ~27 s

COc1cccc(C#CCO/N=C2\CN3CC[C@@H]2C3)c1 [ether-precipitated product]
physical state under accelerated stability condition ([3]; 2 weeks, 40° C./75% RH): deliquescent

COc1cccc(C#CCO/N=C2\CN3CC[C@@H]2C3)c1 [Acetate]
Overall Salt Rating [1]: Low

COc1cccc(C#CCO/N=C2\CN3CC[C@@H]2C3)c1 [Benzoate]
Overall Salt Rating [1]: High | stability in words ([3]; 25° C./60% RH and 30° C./60% RH): stable | Stability: presence of 1c ([3]; 30° C./60% RH, 2 weeks): .largecircle. | Stability to light: presence of 1c [3, 11]: E (presence of 2%-4% 1c) | solubility [4]: 6 mg/mL

COc1cccc(C#CCO/N=C2\CN3CC[C@@H]2C3)c1 [Tartrate (L)-(+) (0.5 equi)]
Overall Salt Rating [1]: Low

COc1cccc(C#CCO/N=C2\CN3CC[C@H]2C3)c1 [Compound 1b]
muscarinic agonist activity ([8]; isomer 1b, could be due to small amounts of 1a): small amount of activity

COc1cccc(C#CCO/N=C2\CN3CC[C@@H]2C3)c1 [Tartrate (D)-(-) (0.5 equi)]
Overall Salt Rating [1]: Low

COc1cccc(C#CCO/N=C2\CN3CC[C@@H]2C3)c1 [L(+)-Lactate]
Overall Salt Rating [1]: Low

COc1cccc(C#CCO/N=C2\CN3CC[C@@H]2C3)c1 [Fumarate (0.5 epui)]
Overall Salt Rating [1]: Medium

COc1cccc(C#CCO/N=C2\CN3CC[C@@H]2C3)c1 [Oxalate]
Hygroscopicity (% wt increase) [2]: 6.38 ± 1.40 % wt | moisture uptake / hygroscopicity in words ([2]; listed as oxalate salt): less hygroscopic than the hydrochloride | reduction of time required to find the platform ([5]; 1 mg/kg, first set of experiments (oxalate)): about 18 seconds

COc1cccc(C#CCO/N=C2\CN3CC[C@@H]2C3)c1 [Tartrate (L)-(+) (1 equi)]
Overall Salt Rating [1]: Low

COc1cccc(C#CCO/N=C2\CN3CC[C@@H]2C3)c1 [Compound 1a, [R-(Z)]-1-azabicyclo [2.2.1]heptan-3-one, O-[3-(3-methoxyphenyl)-2-propynyl]oxime]
potency and efficacy as a muscarinic agonist (ratio of QNB to CMD binding) ([6]; 1a versus mixture of 1c/1d): more potent and more efficacious as a muscarinic agonist | pIC50 [6]: 7.60 | pIC50 [7]: 5.28 | decomposition or isomerization to 1c on storage [9]: without noticeable decomposition or isomerization to produce 1c | m1 potency [8, 12]: greater m1 potency than isomer 1b | m1 receptor subtype selectivity [8, 12]: greater m1 receptor subtype selectivity

COc1cccc(C#CCO/N=C2\CN3CC[C@@H]2C3)c1 [Fumarate (1 equi)]
Overall Salt Rating [1]: Low

COc1cccc(C#CCO/N=C2\CN3CC[C@@H]2C3)c1 [Stearate]
Overall Salt Rating [1]: Low

COc1cccc(C#CCO/N=C2\CN3CC[C@@H]2C3)c1 [Tartrate (D)-(-) (1 equi)]
Overall Salt Rating [1]: Low

COc1cccc(C#CCO/N=C2\CN3CC[C@@H]2C3)c1 [Hydrobromide]
Overall Salt Rating [1]: Low | hygroscopicity of precipitated salt ([1]; precipitation from Et2O): very hygroscopic

COc1cccc(C#CCON=C2CN3CCC2C3)c1 (centres unmarked) [Compound 1]
affinity to rat cerebral cortex muscarinic receptors ([10]; rat cerebral cortex): high affinity | ability to displace agonist radioligand (cis-methyldioxolane) at lower concentrations than those required to displace antagonist radioligand (quinuclidinyl benzilate) ([10]; ratio QNB/CMD): 246 times | selective stimulation of m1-subtype muscarinic receptors ([8]; versus other non-m1 muscarinic receptors, earlier publications): selectively stimulate m1-subtype muscarinic receptors without significant stimulation of other non-m1 muscarinic receptors

COc1cccc(C#CCO/N=C2\CN3CC[C@@H]2C3)c1 [Malate]
Overall Salt Rating [1]: Low

COc1cccc(C#CCO/N=C2\CN3CC[C@@H]2C3)c1 [Hydrochloride]
Overall Salt Rating [1]: High | isomer formation on recrystallization (words) [1]: E-Isomer Formation | isomer formation on recrystallization (words) ([1]; listed as hydrochloride): difficult to recrystallize without converting 1a to 1c | Hygroscopicity (% wt increase) [2]: 27.77 ± 0.40 % wt | moisture uptake / hygroscopicity in words ([2]; listed as HCl salt): took up water most rapidly and to the greatest extent | moisture uptake / hygroscopicity in words ([2]; listed as hydrochloride salt): extremely hygroscopic

CCCC(=O)O.COc1cccc(C#CCON=C2CN3CCC2C3)c1 (centres unmarked)
Overall Salt Rating [1]: Low
